Key:
Type in all cases: in vivo, mouse
ICR mice [1] = assay: Tolerability 0.1, 0.3, 1.0, 3.0 mg/kg IV in 10% ethanol/10% Solutol HS 15, 4 days (Example M)
Description: (§1) Using the techniques described above in Example B, an aqueous vehicle comprising 10% ethanol (v/v) and 10% Solutol® HS 15 (v/v) was prepared. An appropriate amount of salinomycin sodium was dissolved into the vehicle to make solutions having concentrations of 0.02, 0.06, 0.2, and 0.3 mg/mL. Ten male ICR mice (Sino-British SIPPR/BK Lab Animal Ltd, Shanghai, China) were assigned to control and treatment groups. […] The individual animal number was marked on the tail, and study number comprised a unique identification for each animal. Animal identification was verified during the course of the study. The animals were housed two per cage in stainless steel suspended cage in an environmentally controlled room. SLACOM (Rodent Diet #20110615029, Shanghai SLAC Laboratory Animal Co. Ltd.) was available ad libitum. Temperature and humidity were monitored and recorded twice daily.
(§2) Each composition and the vehicle (control) were administered once daily to each of two mice via intravenous bolus injection for 4 consecutive days. The dose levels for the treated groups and the control group are in the below table. Individual doses were based on the most recent body weight.
(§3) Body weights for all animals were measured and recorded at receipt, prior to randomization, and once daily during the study. Body weight change was calculated for mean value of animals relative to Day 1 mean body weight value.

ICR mice [2] = assay: Tolerability 0.1, 0.3, 1.0, 3.0 mg/kg IV in 5% ethanol/15% Solutol HS 15, 4 days (Example N)
Description: as §1, with “Example A,” for “Example B,”, “comprising 5%” for “comprising 10%”, “and 15%” for “and 10%”
as §2, §3

ICR mice [3] = assay: Tolerability 0.1, 0.3, 1.0 mg/kg IV in 3% propylene glycol/10% Solutol HS 15, 4 days (Example O); conditions: for Body weight: FIG. 8
Description: as §1, with “A,” for “B,”, “3% propylene glycol” for “10% ethanol”, “0.06,” for “0.06, 0.2,”, “0.2” for “0.3”, “Eight” for “Ten”
as §2, §3

ICR mice [4] = assay: Tolerability 0.03, 0.1, 0.3, 1.0 mg/kg IV in 5% ethanol/10% propylene glycol/20% Solutol HS 15, 4 days (Example Q); conditions: 5% ethanol/10% propylene glycol/20% Solutol HS 15 (heading)
Description: Using the techniques described above in Example A, an aqueous vehicle comprising 5% ethanol (v/v), 10% propylene glycol (v/v), and 10% Solutol® HS 15 (v/v) was prepared. An appropriate amount of salinomycin sodium was dissolved into the vehicle to make solutions having concentrations of 0.006, 0.02, 0.06, and 0.2 mg/mL. Ten male ICR mice (Sino-British SIPPR/BK Lab Animal Ltd, Shanghai, China) were assigned to control and treatment groups. […] The individual animal number was marked on the tail, and study number comprised a unique identification for each animal. Animal identification was verified during the course of the study. The animals were housed two per cage in stainless steel suspended cage in an environmentally controlled room. SLACOM (Rodent Diet #20110615029, Shanghai SLAC Laboratory Animal Co. Ltd.) was available ad libitum. Temperature and humidity were monitored and recorded twice daily.
as §2, §3

[5] = 1.0 mg/kg IV once daily 4 days, after the first administration, no abnormalities on days 2, 3, 4

CC[C@@H](C(=O)[C@@H](C)[C@@H](O)[C@H](C)[C@@H]1O[C@@H]([C@@H](CC)C(=O)O)CC[C@@H]1C)[C@H]1O[C@]2(C=C[C@@H](O)[C@]3(CC[C@@](C)([C@H]4CC[C@](O)(CC)[C@H](C)O4)O3)O2)[C@H](C)C[C@@H]1C [salinomycin sodium]
Clinical observations (ICR mice [1]; 0.1 mg/kg IV once daily 4 days): no abnormalities | Clinical observations (ICR mice [1]; 0.3 mg/kg IV once daily 4 days, dissipated after 3 hours, no abnormalities on days 2, 3, 4): skin cold to the touch after the first administration | Clinical observations (ICR mice [1]; [5]): decreased activity, decreased grasping, and skin cold to the touch | Mortality (ICR mice [1]; 3.0 mg/kg IV): died shortly after administration | Body weight (ICR mice [1]; each group surviving administration, IV once daily 4 days, FIG. 6): relatively stable | Clinical observations (ICR mice [2]; 0.1 mg/kg IV once daily 4 days): no abnormalities | Clinical observations (ICR mice [2]; 0.3 mg/kg IV once daily 4 days): no abnormalities | Clinical observations (ICR mice [2]; [5]): decreased activity, decreased grasping, and laying prostrate | Mortality (ICR mice [2]; 3.0 mg/kg IV): died shortly after administration | Body weight (ICR mice [2]; each group surviving administration, IV once daily 4 days, FIG. 7): relatively stable | Clinical observations (ICR mice [3]; 0.1 mg/kg IV once daily 4 days): no abnormalities | Clinical observations (ICR mice [3]; 0.3 mg/kg IV once daily 4 days, after initial administration, no abnormalities on days 2, 3, 4): slight decrease in activity | Body weight (ICR mice [3]; 1 mg/kg IV once daily 4 days): decreased steadily | Clinical observations (ICR mice [3]; 1.0 mg/kg IV once daily 4 days, no abnormalities on days 2, 3, 4): decreased activity and leaning | Body weight (ICR mice [3]; 0.1 and 0.3 mg/kg IV once daily 4 days): remained relatively stable | Clinical observations (ICR mice [4]; 0.03 mg/kg IV once daily 4 days): no abnormalities | Clinical observations (ICR mice [4]; 0.1 mg/kg IV once daily 4 days, after administration, no abnormalities on days 2, 3, 4): decreased activity and discolored urine (red) | Clinical observations (ICR mice [4]; 0.3 mg/kg IV once daily 4 days, after administration, no abnormalities on days 2, 3, 4): decreased activity and discolored urine (red) | Mortality (ICR mice [4]; 1.0 mg/kg IV): died shortly after administration | Body weight (ICR mice [4]; each group surviving administration, IV once daily 4 days, FIG. 10): relatively stable

Source: patent US20140336248A1, “THERAPEUTIC COMPOSITIONS AND RELATED METHODS OF USE” (priority 2011, published 2014)
